Data published in US6593342B1, “Pharmaceutical compositions comprising 2-quinolones” (Laboratoire L. Lafon, priority 1998, dated 2003).

Columns and labels:
[1] = test system: U-87MG; test: MTT test, U-87MG; assay type: cell-based; conditions: Homo sapiens, 10^−5 M, 72 hours, control = 100%, mean ± SEM, read-out: average optical density (MTT), percentage relative to control
Experimental: (§1) The influence of the compounds of formulae (I) and (Ia) on non-clonogenic cells was evaluated with the aid of the MTT calorimetric test.
(§2) The principle of the MTT test is based on the mitochondrial reduction, by the metabolically active live cells, of the yellow-colored product MTT (3-(4,5-dimethylthiazol-2-yl)-2,5-diphenyltetrazolium bromide) to a blue-colored product, formazan. The amount of formazan thus obtained is directly proportional to the amount of live cells present in the culture well(s). This amount of formazan is measured by spectrophotometry.
(§3) The cell lines are maintained as a monolayer culture at 37° C. in stoppered culture dishes containing MEM 25 MM HEPES (Minimum Essential Medium) base medium. This medium is suited to the growth of a range of various mammalian diploid or primary cells. This medium is then supplemented with:
(§4) an amount of 5% of FCS (Foetal Calf Serum) decomplemented at 56° C. for 1 hour,
(§5) 0.6 mg/ml of L-glutamine,
(§6) 200 μg/ml of streptomycin,
(§7) The 12 human cancer cell lines which were used were obtained from the American Type Culture Collection (ATCC, Rockville, Md., USA). These 12 cell lines are:
(§8) U-373MG (code ATCC: HTB-17) and U-87MG (code ATCC: HTB-14) which are two glioblastomas,
(§9) Experimentally: 100 μl of a cell suspension containing 20 000 to 50 000 (depending on the cell type used) cells/ml of culture medium are inoculated in 96-well flat-bottomed multi-well plates and are incubated at 37° C., under an atmosphere comprising 5% CO2 and 70% humidity. After incubation for 24 hours, the culture medium is replaced with 100 μl of fresh medium containing either the various test compounds at concentrations ranging from 10^−5 to 10^−10 M or the solvent used to dissolve the test products (control condition). After incubation for 72 hours under the above conditions, the culture medium is replaced with 100 μl of a yellowish solution of MTT dissolved at a rate of 1 mg/ml in RPMI 1640. The microplates are reincubated for 3 hours at 37° C. and are then centrifuged for 10 minutes at 400×g. The yellowish solution of MTT is removed and the blue formazan crystals formed in the cell are dissolved in 100 μl of DMSO. The microplates are then shaken for 5 minutes. The intensity of the resulting blue coloration, and thus of the conversion of the yellow product MTT into blue formazan by the cells that are still alive at the end of the experiment, is quantified by spectrophotometry using a Dynatech Immunoassay System machine at wavelengths of 570 nm and 630 nm corresponding, respectively, to the maximum absorption wavelengths of formazan and to the background noise. Software incorporated in the spectrophotometer calculates the average optical density values and the standard deviation (SD) and standard error of mean (SEM) values.
(§10) By way of example, the results of the average optical density, expressed as a percentage relative to the average optical density measured under the control condition (set equal to 100%), obtained at a concentration of 10^−5 M on the 12 abovementioned tumor cell lines are given in Table II.

[2] = test system: U-373MG; test: MTT test, U-373MG; assay type: cell-based; conditions: Homo sapiens, U373 MG, 10^−5 M, 72 hours, control = 100%, mean ± SEM, read-out: average optical density (MTT), percentage relative to control
Experimental: as §1, §2, §3, §4, §5, §6, §7, §8, §9, §10

[3] = test system: SW1088; test: MTT test, SW1088; assay type: cell-based; conditions: Homo sapiens, 10^−5 M, 72 hours, control = 100%, mean ± SEM, read-out: average optical density (MTT), percentage relative to control
Experimental: as §1, §2, §3, §4, §5, §6, §7
SW1088 (code ATCC: HTB-12) which is an astrocytoma,
as §9, §10

[4] = test system: T24; test: MTT test, T24; assay type: cell-based; conditions: Homo sapiens, T-24, 10^−5 M, 72 hours, control = 100%, mean ± SEM, read-out: average optical density (MTT), percentage relative to control
Experimental: as §1, §2, §3, §4, §5, §6, §7
(§11) J82 (code ATCC: HTB-1) and T24 (code ATCC: HTB-4) which are two bladder cancers,
as §9, §10

[5] = test system: J82; test: MTT test, J82; assay type: cell-based; conditions: Homo sapiens, 10^−5 M, 72 hours, control = 100%, mean ± SEM, read-out: average optical density (MTT), percentage relative to control
Experimental: as §1, §2, §3, §4, §5, §6, §7, §11, §9, §10

[6] = test system: HCT-15; test: MTT test, HCT-15; assay type: cell-based; conditions: Homo sapiens, 10^−5 M, 72 hours, control = 100%, mean ± SEM, read-out: average optical density (MTT), percentage relative to control
Experimental: as §1, §2, §3, §4, §5, §6, §7
(§12) HTC-15 (code ATCC: CCL-225) and LoVo (code ATCC: CCL-229) which are two colorectal cancers,
as §9, §10

[7] = test system: LoVo; test: MTT test, LoVo; assay type: cell-based; conditions: Homo sapiens, 10^−5 M, 72 hours, control = 100%, mean ± SEM, read-out: average optical density (MTT), percentage relative to control
Experimental: as §1, §2, §3, §4, §5, §6, §7, §12, §9, §10

[8] = test system: MCF7; test: MTT test, MCF7; assay type: cell-based; conditions: Homo sapiens, 10^−5 M, 72 hours, control = 100%, mean ± SEM, read-out: average optical density (MTT), percentage relative to control
Experimental: as §1, §2, §3, §4, §5, §6, §7
(§13) T-47D (code ATCC: HTB-133) and MCF7 (code ATCC: HTB-22) which are two breast cancers,
as §9, §10

[9] = test system: T-47D; test: MTT test, T-47D; assay type: cell-based; conditions: Homo sapiens, T47D, 10^−5 M, 72 hours, control = 100%, mean ± SEM, read-out: average optical density (MTT), percentage relative to control
Experimental: as §1, §2, §3, §4, §5, §6, §7, §13, §9, §10

[10] = test system: A549; test: MTT test, A549; assay type: cell-based; conditions: Homo sapiens, 10^−5 M, 72 hours, control = 100%, mean ± SEM, read-out: average optical density (MTT), percentage relative to control
Experimental: as §1, §2, §3, §4, §5, §6, §7
(§14) A549 (code ATCC: CCL-185) and A-427 (code ATCC: HTB-53) which are two non-small-cell lung cancers,
as §9, §10

[11] = test system: A-427; test: MTT test, A-427; assay type: cell-based; conditions: Homo sapiens, 10^−5 M, 72 hours, control = 100%, mean ± SEM, read-out: average optical density (MTT), percentage relative to control
Experimental: as §1, §2, §3, §4, §5, §6, §7, §14, §9, §10

[12] = test system: PC-3; test: MTT test, PC-3; assay type: cell-based; conditions: Homo sapiens, 10^−5 M, 72 hours, control = 100%, mean ± SEM, read-out: average optical density (MTT), percentage relative to control
Experimental: as §1, §2, §3, §4, §5, §6, §7
PC-3 (code ATCC: CRL-1435) which is a prostate cancer.
as §9, §10

[13] = Determination of the maximum tolerated dose (MTD); conditions: mouse, in vivo, ip; B6D2F1/Jico mice; single intraperitoneal administration, 2.5 to 160 mg/kg; survival over 14 days
Experimental: 3.—Determination of the Maximum Tolerated Dose (MTD):
The evaluation of the maximum tolerated dose was carried out on 4- to 6-week-old B6D2F1/Jico mice. The compounds were administered intraperitoneally at increasing doses graduating from 2.5 to 160 mg/kg. The value of the MTD (expressed in mg/kg) is determined from the observation of the survival rate of the animals over a 14-day period after a single administration of the product under consideration. The weight change of the animals is also monitored during this period. When the value of the MTD is greater than 160 mg/kg, the MTD value is likened to 160 mg/kg by default.
The results of the estimation of the maximum tolerated dose (MTD) are collated in the following table: […]

SMILES | viability at 10 µM [1] [%] | viability at 10 µM [2] [%] | viability at 10 µM [3] [%] | viability at 10 µM [4] [%] | viability at 10 µM [5] [%] | viability at 10 µM [6] [%] | viability at 10 µM [7] [%] | viability at 10 µM [8] [%] | viability at 10 µM [9] [%] | viability at 10 µM [10] [%] | viability at 10 µM [11] [%] | viability at 10 µM [12] [%] | MTD at 14 day [13] [mg/kg]
CCOC(=O)Cn1c(=O)c(-c2ccc(OC)cc2)cc2c(OC)cc(OC)cc21 [CRL8314] | 74.5 ± 3.4 | 89.2 ± 2 | 85.4 ± 2.5 | 61.9 ± 2.5 | 33.2 ± 1.2 | 116 ± 4.4 | 82.9 ± 2.5 | 72.2 ± 2 | 114 ± 2.3 | 85.2 ± 1.4 | 104 ± 3.1 | 88.6 ± 1.4 | > 160
COc1ccc(-c2cc3c(OC)ccc(OC)c3nc2O)cc1 [CRL8336, 5,8-Dimethoxy-3-(4-methoxyphenyl)-1,2-dihydro-2-quinolinone] | 82.3 ± 1.8 | 82.3 ± 1.6 | 101 ± 4.3 | 88.2 ± 1.4 | 90.9 ± 0.9 | 93.1 ± 3.2 | 92.6 ± 3.4 | 73.9 ± 0.7 | 96.2 ± 2.9 | 114 ± 1.9 | 87.9 ± 3.1 | 91.7 ± 1.5 | > 160
COc1ccc(-c2cc3c(OC)cc(OC)c4c3n(c2=O)CCC4=O)cc1 [CRL8285, 8,10-Dimethoxy-6-(4-methoxyphenyl)-2,3-dihydro-1H,5H-pyrido[3,2,1-ij]quinoline-1,5-dione] | 85.1 ± 2 | 96.9 ± 1.6 | 89.8 ± 2.7 | 72.7 ± 1.8 | 68.7 ± 2.9 | 90.6 ± 1.6 | 103 ± 3.1 | 83.7 ± 2.3 | 89.3 ± 1.7 | 92.5 ± 3.5 | 78.4 ± 1.6 | 93.4 ± 1.8 | > 160
COc1ccc(-c2cc3c(OC)cc(OC)cc3n(C)c2=O)cc1 [CRL8244, 5,7-Dimethoxy-3-(4-methoxyphenyl)-1-methyl-1,2-dihydro-2-quinolinone] | 97 ± 1 | 69 ± 0.9 | 81.3 ± 1.1 | 88.7 ± 2.9 | 88.5 ± 2.1 | 76.8 ± 3 | 78.2 ± 1.8 | 75.9 ± 3.8 | 105 ± 3 | 98 ± 0.9 | 93.6 ± 2.3 | 83.2 ± 3.6 | > 160
COc1ccc(-c2cc3c(OC)cc(OC)cc3n(C)c2=S)cc1 [CRL8245, 5,7-Dimethoxy-3-(4-methoxyphenyl)-1-methyl-1,2-dihydro-2-quinolinethione] | 58.6 ± 1.7 | 63.7 ± 2.7 | 75.1 ± 2 | 51.1 ± 1.9 | 31.1 ± 0.6 | 35.8 ± 1.2 | 65.5 ± 1.1 | 46.9 ± 1 | 59.6 ± 2.9 | 74.1 ± 2.1 | 69 ± 1.9 | 74.4 ± 1.9 | > 160
COc1ccc(-c2cc3c(OC)cc(OC)cc3n(CCC(=O)O)c2=O)cc1 [CRL8319, 3-[5,7-Dimethoxy-3-(4-methoxyphenyl)-2-oxo-1,2-dihydro-1-quinolinyl]propanoic Acid] | 115 ± 2.9 | 102 ± 1.5 | 89.8 ± 2.7 | 89.6 ± 2.1 | 80.9 ± 1 | 96.7 ± 1.6 | 79.7 ± 2.7 | 102 ± 2 | 104 ± 2.5 | 97.3 ± 1.2 | 79.1 ± 2.5 | 90.7 ± 3.6 | > 160
COc1ccc(-c2cc3c(OC)cc(OC)cc3n(CCCN(C)C)c2=O)cc1 [CRL8254, 1-[3-(Dimethylamino)propyl]-5,7-dimethoxy-3-(4-methoxyphenyl)-1,2-dihydro-2-quinolinone] | 105 ± 3.6 | 7.6 ± 1.3 | 128 ± 2.2 | 103 ± 2.9 | 87.8 ± 1 | 94.4 ± 3.5 | 91.8 ± 2.7 | 81.9 ± 0.6 | 55.2 ± 4.1 | 96.9 ± 1.5 | 20.2 ± 2.3 | 97.9 ± 1.2 | > 160
COc1ccc(-c2cc3c(OC)cc(OC)cc3n(C)/c2=N\Nc2ccccc2)cc1 [CRL8270, 5,7-Dimethoxy-3-(4-methoxyphenyl)-1-methyl-1,2-dihydro-2-quinolinone-2-phenylhydrazone] | 75.6 ± 0.9 | 52.2 ± 3.2 | 50.7 ± 1.8 | 51.1 ± 3.8 | 42.5 ± 0.8 | 58.8 ± 1.8 | 80 ± 3.2 | 51.5 ± 2.4 | 22.9 ± 4.3 | 52.2 ± 2.4 | 30.8 ± 2.1 | 49.4 ± 1.1 | > 160
COc1cccc2cc(-c3ccccc3)c(O)nc12 [CRL8339, 8-Methoxy-3-phenyl-1,2-dihydro-2-quinolinone] | 69.1 ± 2.1 | 73.6 ± 1.8 | 87.1 ± 2.6 | 87.4 ± 2 | 83.7 ± 0.6 | 65.5 ± 2.2 | 74.4 ± 1.8 | 82.7 ± 3.5 | 81 ± 2.8 | 49.6 ± 2.2 | 52.3 ± 2.3 | 84.3 ± 1.8 | > 160
Oc1ccc(-c2cc3c(O)cc(O)cc3nc2O)cc1 [CRL8311, 5,7-Dihydroxy-3-(4-hydroxyphenyl)-1,2-dihydro-2-quinolinone] | 91.8 ± 1.3 | 113 ± 2.5 | 80.7 ± 1.7 | 90 ± 1.9 | 127 ± 1.9 | 101 ± 3.6 | 77.9 ± 1.7 | 98.8 ± 2.3 | 108 ± 6.6 | 106 ± 2.4 | 89.7 ± 2 | 122 ± 3.5 | > 160
COC(=O)CCn1c(=O)c(-c2ccc(OC)cc2)cc2c(OC)cc(OC)cc21 [CRL8318] | 78.1 ± 2.4 | 89.9 ± 1.3 | 75.2 ± 3 | 81.8 ± 1.4 | 72.8 ± 1.2 | 113 ± 1.7 | 75.2 ± 2.3 | 105 ± 2.4 | 100 ± 3.9 | 86.6 ± 2.5 | 74 ± 3 | 79.2 ± 2.8 | > 160
